Target: T1, CaMKIIδ (Homo sapiens, UniProt Q13557)
T1 construct: gene CAMK2D; recombinant CaMKIIδ (Invitrogen)
Assay: in vitro kinase assay with autocamtide-2 peptide, ADP quantification
Type: biochemical

T1 sequence (Q13557 2-499): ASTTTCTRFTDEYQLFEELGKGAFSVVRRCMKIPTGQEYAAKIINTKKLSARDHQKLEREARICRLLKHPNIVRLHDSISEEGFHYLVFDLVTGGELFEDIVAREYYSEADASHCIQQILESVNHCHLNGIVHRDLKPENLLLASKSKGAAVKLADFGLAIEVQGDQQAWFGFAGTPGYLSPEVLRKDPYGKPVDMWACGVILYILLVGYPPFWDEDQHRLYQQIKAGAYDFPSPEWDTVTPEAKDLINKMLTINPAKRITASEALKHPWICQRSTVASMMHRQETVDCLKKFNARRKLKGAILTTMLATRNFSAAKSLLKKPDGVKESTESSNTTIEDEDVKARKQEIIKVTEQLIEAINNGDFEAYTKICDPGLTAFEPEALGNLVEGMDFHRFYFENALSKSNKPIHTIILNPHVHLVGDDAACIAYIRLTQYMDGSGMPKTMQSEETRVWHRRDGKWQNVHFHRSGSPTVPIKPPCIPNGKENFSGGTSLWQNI

Compound	IC50 [µM]
COc1ccc(S(=O)(=O)N(CCO)c2ccccc2CN(C)C/C=C/c2ccc(Cl)cc2)cc1 [KN93]	6.37
COc1ccc(-c2cc(=O)c3c(O)cc(O[C@@H]4O[C@H](CO)[C@@H](O)[C@H](O)[C@H]4O)cc3o2)cc1 [tilianin]	> 100

— publication PMC7568786, “Tilianin Protects against Ischemia/Reperfusion-Induced Myocardial Injury through the Inhibition of the Ca^2+/Calmodulin-Dependent Protein Kinase II-Dependent Apoptotic and Inflammatory Signaling Pathways” (BioMed Research International, 2020)
